The subject of one series is Caco-2 monolayers. The series can be described thus: Transport of 125I-labelled carriers across Caco-2 monolayers on permeable inserts. It counts as in vitro ADME, human. Background: Passage across Caco-2 layers is used to estimate intestinal permeability.
Another series relates to ICAM-1 on HUVEC. The series can be described thus: Leukocyte transmigration across TNF-activated HUVEC monolayer in transwell. The note with it: compared to albumin, scrambled peptide and LB2 controls. Format: cell-based, human. Here is the method:
Human endothelial cells (human umbilical vein endothelial cells (HUVECs)) were grown until formation of a continuous confluent monolayer in a transwell filter located between upper and lower chambers. The cells were then treated with tumor necrosis factor alpha to mimic inflammatory activation of endothelial cells and SDF1a was added to the lower chamber to generate a gradient to attract white blood cells, as during inflammation. Lymphocytes isolated from human peripheral blood were activated with interleukin 2 and added to the upper chamber above endothelial cells in the absence (control) or presence of ICAM-1-targeting peptides A1, B7, B8, B9, B10, or D6. Albumin or a peptide of scrambled sequence were used as negative controls which should not block inflammatory transmigration of leukocytes across endothelial cells. The anti-ICAM antibody LB2, which is known to block leukocyte adhesion to ICAM-1, was used as a positive control which should block such transmigration.
Leukocytes which transmigrated to the lower chamber below endothelial cells were counted to assess their transmigration. FIG. 9 provides a graph of the resulting leukocyte transmigration as a percentage of the control. The peptides annotated with an asterisk in FIG. 9 indicate that the peptide was effective in statistically significant blockage of leukocyte transmigration across endothelial cells.

Series [1] has as its target T1, ICAM-1 on human endothelial cells (Homo sapiens, UniProt P05362).
T1 construct: endogenous in cells
The series can be described thus: Competition of binding of anti-ICAM nanocarriers to human endothelial cells by synthetic peptides. It counts as cell-based. The source says:
(§1) (A) ELISA measurement of the binding of 7-mer peptide expressing phage library to immobilized recombinant ICAM-1 (consisting of the two most membrane-distal Ig domains—1 and 2—of mouse ICAM-1 fused to human Fc or hFc), versus their binding to control hFc. (B) Relative specificity and (C) relative affinity of ICAM-1-targeting peptide phages, determined by ELISA from the experiment in (A). (D) Relative binding of phages expressing 7-mer peptides to native ICAM-1 expressed on the surface of HV5 mouse endothelial cells, either control or activated with TNFalpha to mimic a disease phenotype. Binding was determined by microscopy using a fluorescently-labeled antibody to the phage capsid. The line in the graph indicates the level of binding of A1 phage to 293 cells, which are voided of ICAM-1-expression. (E, F) Endocytosis (1 h, 37° C.) of phages expressing 7-mer peptides by control mouse endothelial cells (E) or mouse endothelial cells incubated in the presence of 3 mM amiloride (F) was estimated by microscopy after staining surface-located phages with a Texas red-labeled antibody to the viral capsid, following by cell permeabilization and staining of all (surface and internalized) phages using a FITC-labeled antibody to the viral capsid. (G) Binding of FITC-labeled anti-ICAM polystyrene nanocarriers to human endothelial cells was evaluated by fluorescence microscopy after incubation with cells in the absence (100% level) or presence of anti-ICAM antibody, ICAM-1-targeting synthetic peptides, or peptides with their scramble sequence (e.g., A1sc).

A further series deals with mouse endothelial cells. Description: Endocytosis of peptide phages by mouse endothelial cells. Format: cell-based. As to conditions: for Internalization of phage viruses by endothelial cells: phages expressing 5 copies of the peptide, 37° C., 1 h.
Excerpt: as §1

Series [2] has as its target T2, ICAM-1 in the vascular endothelium (Mus musculus, UniProt P13597).
T2 construct: from tissue
Description: Lodging of fibrin microemboli in the vasculature of mice. It counts as in vivo. Here is the method: C57Bl/6 mice were first injected intravenously with γ3 to block ICAM-1 in the vascular endothelium in organs. Alternatively, injections of saline or anti-ICAM were used as controls. Fifteen minutes later the mice were injected with fibrin clots (microemboli around 3-5 micrometer) generated in the lab by established procedures.
Following microemboli administration, the microemboli amounts were measured in a gamma counter and calculated as percent of injected dose in circulation or localization ratio (the percent injected dose/gram in an organ divided by percent injected dose/gram in blood). FIG. 10(A) is a graphical illustration of the amount of microemboli in circulation in blood, as evaluated at 1 min after injection and FIG. 10(B) is a graphical illustration of the amount of microemboli lodging in the vasculature of the kidneys and spleen at 15 min after injection.

For series [3], the target named is T3, native ICAM-1 expressed by activated HUVEC (Homo sapiens, UniProt P05362).
T3 construct: endogenous in cells
T3 sequence (P05362 28-532): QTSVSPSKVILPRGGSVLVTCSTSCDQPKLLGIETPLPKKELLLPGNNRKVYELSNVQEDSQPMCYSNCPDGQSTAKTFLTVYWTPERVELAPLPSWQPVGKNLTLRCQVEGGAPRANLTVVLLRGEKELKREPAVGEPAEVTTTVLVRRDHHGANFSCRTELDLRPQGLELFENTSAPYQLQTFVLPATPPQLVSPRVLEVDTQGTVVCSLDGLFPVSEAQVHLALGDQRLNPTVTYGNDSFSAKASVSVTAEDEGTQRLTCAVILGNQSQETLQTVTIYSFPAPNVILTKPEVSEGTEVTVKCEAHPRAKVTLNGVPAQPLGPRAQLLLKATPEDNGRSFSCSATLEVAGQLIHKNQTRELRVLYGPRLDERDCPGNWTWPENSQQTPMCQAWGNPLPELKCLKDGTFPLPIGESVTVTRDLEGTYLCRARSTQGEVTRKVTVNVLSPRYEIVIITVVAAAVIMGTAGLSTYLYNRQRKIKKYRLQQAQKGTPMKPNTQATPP
The series can be described thus: Binding of γ3/ASM carriers to activated HUVEC, with or without excess competitor. The note with it: 1 h, 37° C. Format: cell-based. Here is the method:
(A) The peptide γ3 was absorbed on the surface of 100 nm FITC-labeled polystyrene carriers and the resulting products were incubated for 15 min on nitrocellulose-immobilized albumin vs human or mouse ICAM-1 chimeras containing ICAM-1-Ig domains 1 and 2 fused to human Fc sequence. The membranes were washed and analyzed by fluorescence microscopy to quantify the number of carriers bound per area. Data are expressed relative to non-specific binding of γ3 carriers to albumin controls (dotted line). A comparison to binding of anti-ICAM carriers is provided (dashed line). (B) Binding of FITC-labeled polystyrene carriers coated by absorption with the peptide γ3 and recombinant acid sphingomyelinase (ASM, a therapeutic enzyme) to activated HUVEC (bars) vs ICAM-1-negative 293 cells (dotted line) was quantified by fluorescence microscopy after 1 h incubation at 37° C., in the absence or presence of excess γ3, anti-ICAM, γ3 scramble peptide, or mannose 6 phosphate (M6P). Data is shown relative to HUVEC binding of γ3/ASM carriers (134±11 particles/cell). (C) HUVEC lysosomes were labeled for 2 h with Texas-red dextran at 37° C. […] Co-localization of FITC carriers with Texas-red dextran-lysosomes was quantified by fluorescence microscopy. […] Co-localization of FITC 2γ3 carriers with Texas red dextran-labeled lysosomes was assessed by microscopy 3 h post-internalization. […]

The subject of another series is HUVEC. Description: Lysosomal transport of peptide-coated carriers in HUVEC. As to conditions: for Binding, internalization and lysosomal transport of carriers: 37° C., co-localization with dextran-labeled lysosomes, carriers coated with the peptide. Format: cell-based, human. Here is the method: (A) The peptide γ3 was absorbed on the surface of 100 nm FITC-labeled polystyrene carriers and the resulting products were incubated for 15 min on nitrocellulose-immobilized albumin vs human or mouse ICAM-1 chimeras containing ICAM-1-Ig domains 1 and 2 fused to human Fc sequence. The membranes were washed and analyzed by fluorescence microscopy to quantify the number of carriers bound per area. Data are expressed relative to non-specific binding of γ3 carriers to albumin controls (dotted line). A comparison to binding of anti-ICAM carriers is provided (dashed line). (B) Binding of FITC-labeled polystyrene carriers coated by absorption with the peptide γ3 and recombinant acid sphingomyelinase (ASM, a therapeutic enzyme) to activated HUVEC (bars) vs ICAM-1-negative 293 cells (dotted line) was quantified by fluorescence microscopy after 1 h incubation at 37° C., in the absence or presence of excess γ3, anti-ICAM, γ3 scramble peptide, or mannose 6 phosphate (M6P). Data is shown relative to HUVEC binding of γ3/ASM carriers (134±11 particles/cell). (C) HUVEC lysosomes were labeled for 2 h with Texas-red dextran at 37° C. Cells were then incubated for 30 min at 37° C. with FITC-labeled γ3/ASM carriers, non-bound carriers were washed, and incubation was continued up to 1, 2, or 3 h. Co-localization of FITC carriers with Texas-red dextran-lysosomes was quantified by fluorescence microscopy. (D) Comparison of lysosomal transport of 100 nm FITC-labeled polystyrene carriers coated with either ICAM-1-targeting peptide γ3 vs its derivatives 2γ3 and 3γ3. (E) Activated HUVEC were incubated for 30 min at 37° C. in the presence of FITC-labeled 2γ3 polystyrene carriers after 15 min pre-treatment with 3 mM amiloride to block ICAM-1-mediated endocytosis, or 0.1 μM PMA to activate PKC and promote ICAM-1-mediated endocytosis. Co-localization of FITC 2γ3 carriers with Texas red dextran-labeled lysosomes was assessed by microscopy 3 h post-internalization. Mean±SEM; n=2 assays. **p<0.005, ***p<0.001, by student's t test.

Another series deals with Caco-2 cells. Description: Endocytosis of anti-ICAM carriers by Caco-2 cells. Format: cell-based, human. As to conditions: TNF-α-treated Caco-2, 1 h, 37° C. As for the experimental part: Furthermore the ability of anti-ICAM carriers to be endocytosed by Caco-2 cells was examined. FITC-labeled anti-ICAM carriers were first incubated with cells for 30 min to allow binding, then non-bound carriers were washed and cells were incubated for varying times to allow carrier uptake. After cell fixation, surface-bound carriers were stained with Texas Red secondary antibody. […] Data are shown as means±S.E.M. (n≧20). […] Internalization was highly efficient: approximately 90% of the carriers bound to cells were internalized, which represents ˜60 carriers per cell.
The mechanism of uptake for Caco-2 cells treated with amiloride, a known inhibitor of CAM-mediated endocytosis (Muro et al., 2003), was examined. TNF-α-treated Caco-2 cells were incubated with FITC-labeled anti-ICAM carriers in the presence or absence of amiloride (1 h, 37° C.), and surface-bound carriers were stained with TxR goat anti-mouse. […] Upper panels of FIG. 14A show total carriers associated to cells, whereas lower panels show the fraction of surface-bound, non-internalized carriers. (Magnification bar=10 μm.) The fluorescence microscopy images were analyzed for the ratio of internalized carriers to surface-bound carriers, expressed as % internalization and normalized to the control. (FIG. 14B; Data are shown as means±S.E.M. (n≧20). *, p<0.001 by Student's t test.)

Ends that are not written are not given here.

T1 sequence (P05362 28-532): as above
T2 sequence (P13597 28-537): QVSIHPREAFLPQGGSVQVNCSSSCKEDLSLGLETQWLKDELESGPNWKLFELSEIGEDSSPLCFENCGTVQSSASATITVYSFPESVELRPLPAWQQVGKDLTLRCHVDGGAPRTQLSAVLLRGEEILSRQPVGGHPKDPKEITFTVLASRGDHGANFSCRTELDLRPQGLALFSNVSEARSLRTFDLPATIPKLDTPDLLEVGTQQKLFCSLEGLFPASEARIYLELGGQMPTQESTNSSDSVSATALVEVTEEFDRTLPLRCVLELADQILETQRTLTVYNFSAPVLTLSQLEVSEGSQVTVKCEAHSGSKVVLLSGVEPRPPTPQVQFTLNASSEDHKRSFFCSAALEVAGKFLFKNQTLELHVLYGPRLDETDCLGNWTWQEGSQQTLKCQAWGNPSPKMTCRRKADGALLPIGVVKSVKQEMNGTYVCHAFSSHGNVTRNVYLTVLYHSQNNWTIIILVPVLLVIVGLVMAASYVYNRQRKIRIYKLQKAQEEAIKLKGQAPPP

As for “^125I-albumin: radiolabelled bovine serum albumin, standard for passive transport”, in the series on Caco-2 monolayers (Caco-2), the Papp A→B (in general, the apparent permeability from the apical to the basolateral side of a cell layer) was determined as 0.03 ± 20000 ×10⁻⁶ cm/s. GSLLSAA [B8, GSLLSAA]: the “Leukocyte transmigration across endothelial cells” value with ICAM-1 on HUVEC is on record as “inhibit leukocyte transmigration”. In addition, the “Inhibition of binding of anti-ICAM nanocarriers to human endothelial cells” value in series [1] is reported as “at some extent”. Further, the “Internalization of phage viruses by endothelial cells” value in the series with mouse endothelial cells is recorded as “not”.

Consider “NNQKIVNLKEKVAQLEA (fibrinogen-derived gamma-3) [γ3]”, for which, in series [2] (1 min after microemboli injection), the “Fibrin microemboli in circulation” value is reported as “remain in circulation”. Also, the “Microemboli lodging in organs” value in series [2] (kidneys and spleen, 15 min after injection) is “attenuating microemboli lodging in organs”. Besides, in series [3], the “Effect of excess free competitor in the media on targeting of γ3/ASM carriers to endothelial cells” value was “suppressed”. As for `O=C[C@@H](O)[C@@H](O)[C@H](O)[C@H](O)COP(=O)(O)O` [mannose-6-phosphate, reference compound], the “Effect of excess free competitor in the media on targeting of γ3/ASM carriers to endothelial cells” value in series [3] is “did not compete”. For the molecule “NNQKIVNIKEKVAQIEA (fibrinogen-derived 2-gamma-3) [2γ3]”, the “Binding, internalization and lysosomal transport of carriers” value in the series with HUVEC is reported as “similar”.

For the molecule “GCKLCAQ (phage display-derived peptide D6) [also tested as phage clone]”, in the series with ICAM-1 on HUVEC, the “Leukocyte transmigration across endothelial cells” value is listed as “inhibit leukocyte transmigration”. With “YQATPLP (phage display-derived peptide B7) [also tested as phage clone]”, the “Leukocyte transmigration across endothelial cells” value with ICAM-1 on HUVEC is “inhibit leukocyte transmigration”. Take “FSPHSRT (phage display-derived peptide B9) [also tested as phage clone]”: the “Leukocyte transmigration across endothelial cells” value in the series with ICAM-1 on HUVEC is reported as “inhibit leukocyte transmigration”. Moreover, the “Inhibition of binding of anti-ICAM nanocarriers to human endothelial cells” value in series [1] is listed as roughly 80 % inhibition. In the case of `N=C(N)NC(=O)c1nc(Cl)c(N)nc1N` [amiloride, reference compound], the “Reduction of transport of 125I-anti-ICAM carriers by amiloride” value in the series with Caco-2 monolayers (3 h) is “about 50%”. Moreover, the “Uptake of anti-ICAM carriers in presence of amiloride” value in the series on Caco-2 cells is 20 % of the control value. In addition, in the series on HUVEC (3 mM amiloride or 0.1 μM PMA pre-treatment), the “Effect of modulator on endocytic transport of peptide carriers” value is on record as “inhibited”. Further, in the series with mouse endothelial cells (Mus musculus, Endothelial cell, phages A1, B7, B9, D6, 3 mM amiloride, read-out: Inhibition of phage internalization by amiloride), the inhibition (commonly the relative decrease from the control value, in per cent) at 3000 µM was in the range of 41 to 59%. “YPFLPTA (phage display-derived peptide B10) [also tested as phage clone]”: the “Leukocyte transmigration across endothelial cells” value in the series with ICAM-1 on HUVEC is given as “inhibit leukocyte transmigration”. The “Internalization of phage viruses by endothelial cells” value in the series on mouse endothelial cells is recorded as “not”. In the case of “NNQKLVNIKEKVAQIEA (fibrinogen-derived 3-gamma-3) [3γ3]”, in the series on HUVEC, the “Binding, internalization and lysosomal transport of carriers” value was “similar”.

The values above are taken from patent US9358305B2, “Targeted carriers for drug delivery across the gastrointestinal epithelium” (University of Maryland, College Park, priority 2009, dated 2016).
